Assay results as given in ChEMBL document CHEMBL1201862, “PubChem BioAssay data set” (2004).
Values belong to the compound of their own block, whether it stands above or below them. Activity calls are given as the source filed them.

Assays:
Cytochrome P450 1A2 = target: T1, Cytochrome P450 1A2 (Homo sapiens, UniProt P05177);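 note: PubChem cytochrome P450 panel assay, CYP1A2 panel member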
T1 sequence (P05177 whole entry): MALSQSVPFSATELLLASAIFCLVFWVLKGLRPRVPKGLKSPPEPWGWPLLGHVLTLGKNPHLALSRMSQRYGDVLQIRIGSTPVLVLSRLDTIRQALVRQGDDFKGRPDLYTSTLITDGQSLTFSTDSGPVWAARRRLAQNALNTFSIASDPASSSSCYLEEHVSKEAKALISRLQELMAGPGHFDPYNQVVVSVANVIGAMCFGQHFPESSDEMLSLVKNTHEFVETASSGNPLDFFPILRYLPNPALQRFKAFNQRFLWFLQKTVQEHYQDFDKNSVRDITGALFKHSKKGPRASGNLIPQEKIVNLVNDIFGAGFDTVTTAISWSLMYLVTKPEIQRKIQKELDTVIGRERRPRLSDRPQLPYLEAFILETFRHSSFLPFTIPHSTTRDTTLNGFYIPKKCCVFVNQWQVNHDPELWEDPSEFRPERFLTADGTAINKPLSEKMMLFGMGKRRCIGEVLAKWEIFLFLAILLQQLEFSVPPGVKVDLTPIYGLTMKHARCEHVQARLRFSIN

[1] = target: T2, Zinc finger protein mex-5 (Caenorhabditis elegans, UniProt Q9XUB2); experiment: MEX-5/TCR-2 RNA interaction inhibitors, dose response, biochemical, C. elegans, fluorescence polarization (AID 1960)
T2 sequence (Q9XUB2 whole entry): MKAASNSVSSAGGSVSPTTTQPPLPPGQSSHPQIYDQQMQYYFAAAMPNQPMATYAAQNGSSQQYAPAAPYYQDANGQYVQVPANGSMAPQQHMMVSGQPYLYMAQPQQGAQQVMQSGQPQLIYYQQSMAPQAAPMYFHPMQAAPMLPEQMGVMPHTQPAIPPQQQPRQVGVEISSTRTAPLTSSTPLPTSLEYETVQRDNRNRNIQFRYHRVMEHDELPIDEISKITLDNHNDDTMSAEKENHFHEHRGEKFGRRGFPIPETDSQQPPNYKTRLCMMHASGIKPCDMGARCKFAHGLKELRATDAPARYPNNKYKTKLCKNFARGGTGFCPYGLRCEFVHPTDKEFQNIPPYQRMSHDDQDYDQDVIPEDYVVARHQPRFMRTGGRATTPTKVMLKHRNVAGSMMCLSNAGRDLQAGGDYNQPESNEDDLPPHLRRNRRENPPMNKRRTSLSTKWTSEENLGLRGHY

[2] = target: T3, RNA-binding protein pos-1 (Caenorhabditis elegans, UniProt G5EF15); experiment: inhibitors of POS-1/mex-3 RNA binding, dose response, biochemical, fluorescence polarization (AID 1964);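 note: purified POS-1 fused to maltose binding protein made in E. coli; potency of compounds blocking POS-1 binding to fluorescent RNA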
T3 sequence (G5EF15 whole entry): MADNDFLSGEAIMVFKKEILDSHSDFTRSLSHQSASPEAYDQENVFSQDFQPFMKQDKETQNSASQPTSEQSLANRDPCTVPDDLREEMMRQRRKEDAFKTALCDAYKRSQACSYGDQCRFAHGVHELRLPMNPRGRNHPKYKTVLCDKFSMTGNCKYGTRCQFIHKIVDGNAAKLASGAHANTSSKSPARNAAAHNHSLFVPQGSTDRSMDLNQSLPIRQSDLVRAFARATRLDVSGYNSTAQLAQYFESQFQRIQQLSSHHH

Cytochrome P450 2C9 = Cytochrome P450 2C9 (Homo sapiens, UniProt P11712)
Cytochrome P450 2C9, sequence (P11712 whole entry): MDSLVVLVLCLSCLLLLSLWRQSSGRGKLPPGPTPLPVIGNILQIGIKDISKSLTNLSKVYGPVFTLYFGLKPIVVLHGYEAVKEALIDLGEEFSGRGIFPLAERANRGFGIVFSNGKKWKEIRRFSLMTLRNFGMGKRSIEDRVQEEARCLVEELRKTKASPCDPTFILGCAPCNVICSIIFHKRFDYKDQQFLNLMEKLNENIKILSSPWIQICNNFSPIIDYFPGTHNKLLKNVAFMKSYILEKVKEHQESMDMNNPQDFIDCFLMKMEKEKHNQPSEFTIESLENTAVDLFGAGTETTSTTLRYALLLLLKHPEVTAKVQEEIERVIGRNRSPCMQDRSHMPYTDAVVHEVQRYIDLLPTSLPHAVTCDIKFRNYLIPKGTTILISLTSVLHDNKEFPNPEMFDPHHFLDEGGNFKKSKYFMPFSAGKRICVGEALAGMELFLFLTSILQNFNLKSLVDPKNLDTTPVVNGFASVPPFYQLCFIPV

Cytochrome P450 2C19 = Cytochrome P450 2C19 (Homo sapiens, UniProt P33261); experiment: Cytochrome panel assay with activity outcomes. Panel member name: p450-cyp2c19 Compounds with AC50 equal or less than 10 uM are considered active; format: functional
Cytochrome P450 2C19, sequence (P33261 whole entry): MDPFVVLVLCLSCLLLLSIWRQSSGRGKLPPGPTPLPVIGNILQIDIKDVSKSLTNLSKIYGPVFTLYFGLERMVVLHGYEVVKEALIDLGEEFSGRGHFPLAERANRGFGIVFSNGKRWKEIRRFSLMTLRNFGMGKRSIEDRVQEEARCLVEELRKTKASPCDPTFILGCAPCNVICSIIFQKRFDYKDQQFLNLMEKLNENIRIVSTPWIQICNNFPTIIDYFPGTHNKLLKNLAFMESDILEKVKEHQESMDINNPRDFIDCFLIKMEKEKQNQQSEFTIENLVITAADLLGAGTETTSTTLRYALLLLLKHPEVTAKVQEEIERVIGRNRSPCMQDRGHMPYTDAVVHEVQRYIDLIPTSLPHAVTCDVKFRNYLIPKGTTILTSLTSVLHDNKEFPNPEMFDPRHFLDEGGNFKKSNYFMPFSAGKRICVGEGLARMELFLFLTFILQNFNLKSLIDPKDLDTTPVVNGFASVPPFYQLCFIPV

[3] = target: T4, Heat shock factor protein 1 (Mus musculus, UniProt P38532); experiment: inhibition of MG132-induced HSE-luciferase signal, confirmation, cell-based, NIH3T3, luminescence, dose retest (AID 2382); format: functional;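 note: NIH3T3 fibroblasts with HSF1-driven luciferase reporter stressed by proteasome inhibitor MG132; luminescence from HSF1-driven luciferase expression after 8 hours of MG132 stress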
T4 sequence (P38532 whole entry): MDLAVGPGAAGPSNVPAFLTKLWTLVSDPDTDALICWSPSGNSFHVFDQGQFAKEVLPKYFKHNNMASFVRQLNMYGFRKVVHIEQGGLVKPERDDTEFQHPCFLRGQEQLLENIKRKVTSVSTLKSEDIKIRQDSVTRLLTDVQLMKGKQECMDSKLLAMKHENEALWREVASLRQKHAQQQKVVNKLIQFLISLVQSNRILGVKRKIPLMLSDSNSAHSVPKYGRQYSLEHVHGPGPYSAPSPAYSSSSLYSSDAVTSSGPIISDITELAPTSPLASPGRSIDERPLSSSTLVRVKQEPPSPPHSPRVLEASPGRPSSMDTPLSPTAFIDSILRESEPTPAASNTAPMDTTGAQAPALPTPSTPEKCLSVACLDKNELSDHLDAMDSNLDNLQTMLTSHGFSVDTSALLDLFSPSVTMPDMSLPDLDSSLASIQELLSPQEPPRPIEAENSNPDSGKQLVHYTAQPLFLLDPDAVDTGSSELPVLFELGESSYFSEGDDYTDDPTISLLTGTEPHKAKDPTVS

[4] = target: T5, Corticotropin-releasing factor receptor 2/Corticotropin-releasing factor-binding protein (Homo sapiens, UniProt P24387+Q13324); experiment: activators of CRF receptor 2 with binding protein – uHTS hits, confirmation (AID 602473); format: functional; conditions: read-out: EC50_Mean
T5 sequence (Q13324 whole entry): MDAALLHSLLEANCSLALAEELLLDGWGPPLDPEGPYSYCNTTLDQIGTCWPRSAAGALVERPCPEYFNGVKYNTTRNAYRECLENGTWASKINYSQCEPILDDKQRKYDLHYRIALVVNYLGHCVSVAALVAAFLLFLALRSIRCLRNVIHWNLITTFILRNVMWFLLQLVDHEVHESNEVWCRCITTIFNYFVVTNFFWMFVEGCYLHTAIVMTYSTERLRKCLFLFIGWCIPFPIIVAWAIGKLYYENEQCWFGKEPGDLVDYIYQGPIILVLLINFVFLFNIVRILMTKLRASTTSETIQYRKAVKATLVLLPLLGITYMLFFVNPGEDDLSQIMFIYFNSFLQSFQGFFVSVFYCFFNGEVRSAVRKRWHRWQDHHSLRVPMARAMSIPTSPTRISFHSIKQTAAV
T5 sequence (P24387 whole entry): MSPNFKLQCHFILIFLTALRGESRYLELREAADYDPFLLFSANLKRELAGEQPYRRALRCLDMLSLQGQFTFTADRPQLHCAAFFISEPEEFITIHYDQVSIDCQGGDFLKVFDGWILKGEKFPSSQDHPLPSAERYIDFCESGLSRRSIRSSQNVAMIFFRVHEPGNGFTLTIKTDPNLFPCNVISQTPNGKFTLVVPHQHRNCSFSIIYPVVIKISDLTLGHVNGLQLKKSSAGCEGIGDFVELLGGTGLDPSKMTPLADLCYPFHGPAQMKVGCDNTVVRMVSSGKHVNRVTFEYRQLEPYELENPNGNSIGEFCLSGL

INS1 = experiment: beta cell apoptosis inhibitors, cytokine rescue, dose response, luminescence, retest (AID 449756); format: functional, cell-based; conditions: Rattus norvegicus;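 note: cell death triggered by IL-1 beta plus TNF-alpha plus IFN-gamma mixture; protective hits raise ATP signal compared with cytokine alone wells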

SMILES: COc1ccccc1C(c1nnnn1C(C)(C)C)N1CCN(Cc2ccncc2)CC1 (configuration not stated)
AC50 (Cytochrome P450 1A2): 25.1 µM (inconclusive)

SMILES: Cc1cc([N+](=O)[O-])nn1CC(=O)NNC(=S)Nc1ccc([N+](=O)[O-])cc1
EC50 [1]: 5.47 µM (active)
EC50 [2]: 28.3 µM (active)

SMILES: CC(=O)OCC(=O)[C@@]1(O)[C@H](C)C[C@@H]2[C@H]3CCC4=CC(=O)C=C[C@]4(C)[C@]3(F)[C@@H](O)C[C@@]21C
AC50 (Cytochrome P450 2C9): 6.31 µM (inconclusive)

SMILES: CCC1CC2CC(NC(C)=O)C1C2 (configuration not stated)
AC50 (Cytochrome P450 2C9): 7.08 µM (inconclusive)
AC50 (Cytochrome P450 2C19; read-out: AC50): 20 µM (inconclusive)

SMILES: COc1cccc(-c2nnc3sc(-c4ccc(C)cc4)nn23)c1
AC50 (Cytochrome P450 2C19; read-out: AC50): 6.31 µM (inconclusive)

SMILES: CCOC(=O)C1=NOC2C3CC(C12)C1C(=O)N(CCc2ccc(OC)c(OC)c2)C(=O)C31 (configuration not stated)
EC50 [3]: > 195 µM (not active)

SMILES: O=C1C2CC=C(Cl)CC2C(=O)N1CCc1ccccc1 (configuration not stated)
EC50 [1]: 20.6 µM (active)
EC50 [2]: 29.4 µM (active)

SMILES: COC(=O)C1=CN(c2ccc(F)c(F)c2)C=C(C(=O)OC)C1c1ccc([N+](=O)[O-])cc1
EC50 [3]: > 195 µM (not active)

SMILES: CCN1CCN(c2nc(C)c3c(n2)CCCC3=O)CC1
AC50 (Cytochrome P450 2C19): inconclusive

SMILES: O=C(NC1CCCCC1)c1ccc(COCC(F)(F)F)o1
AC50 (Cytochrome P450 2C9): 15.8 µM (inconclusive)

SMILES: COc1ccccc1NCC(=O)N/N=C/c1c(O)ccc2ccccc12
EC50 [1]: > 150 µM (not active)
EC50 [2]: > 300 µM (not active)
AC50 (INS1): 4.94 µM (active)

The next lines start with the values.

AC50 (Cytochrome P450 1A2): 39.8 µM (inconclusive)
AC50 (Cytochrome P450 2C19; read-out: AC50): 28.2 µM (inconclusive)
SMILES: CCN1CCCC1CNC(=O)CSCc1nc(-c2ccccc2C)oc1C (configuration not stated)

EC50 [3]: > 195 µM (not active)
SMILES: Cc1cc(S(=O)(=O)N2CCN=C2c2ccccc2)c(C)cc1Cl

EC50 [1]: 103 µM (active)
EC50 [2]: 30.6 µM (active)
SMILES: O=C(CC1Nc2ccccc2NC1=O)c1ccccc1 (configuration not stated)

EC50 [3]: > 195 µM (not active)
SMILES: CCCOc1ccc(NC(N)=O)cc1OCCC

AC50 (Cytochrome P450 1A2): 0.398 µM (inconclusive)
SMILES: CCNc1ncc2nc(-c3ccc(F)cc3)c(=O)n(-c3ccccc3)c2n1

AC50 (Cytochrome P450 1A2): 3.55 µM (inconclusive)
SMILES: COc1ccc(-n2cnc3sc(-c4ccccc4)cc3c2=O)cc1

AC50 (Cytochrome P450 1A2): 10 µM (inconclusive)
SMILES: COC(=O)c1cc(Br)c(=O)n(CCc2ccc(O)cc2)c1

EC50 [4]: 14.1 µM (active)
SMILES: CC1(c2ccc(Cl)cc2)NC(=O)N(CC(=O)N2CCc3ccccc32)C1=O (configuration not stated)

EC50 [1]: > 300 µM (inconclusive)
EC50 [2]: > 300 µM (inconclusive)
EC50 [4]: > 53 µM (inactive)
SMILES: COc1cc(/N=C/c2c(O)oc3ccccc3c2=O)c(OC)cc1Cl

EC50 [3]: > 195 µM (not active)
SMILES: Cc1cccc(N2C(=O)CS/C2=N\NC(=O)c2ccc(Br)cc2)c1C

EC50 [3]: > 195 µM (not active)
SMILES: CC(=N/O)/C(C)=N\NC(=O)c1ccccn1

EC50 [3]: > 195 µM (not active)
SMILES: O=C(O)COc1ccc(/C=N/NC(=O)c2ccccc2Br)cc1
